Laboratory results from US8361802B2, “Fluorescent ozone sensor” (University of Pittsburgh—Of the Commonwealth System of …, priority 2009, dated 2013).

Columns and labels:
[1] = Fluorescence spectroscopy of the compounds; format: physicochemical
Experimental: Fluorescence spectroscopy. Fluorescence spectra were recorded in a 1×1-cm disposable cuvette (VWR; catalog number 58017-880) on a Jobin Yvon FluoroMax-3 spectrometer under the control of a Windows-based PC running FluorEssence software. The samples were excited at 497 nm and the emission intensities were collected at 523 nm. All spectra were corrected for emission intensity using the manufacturer supplied photomultiplier curves.
FIGS. 4A-H illustrate absorbance and fluorescence emission of compounds 4, 7, 8, and S1, wherein fluorescence and emission spectra were measured in 0.1% DMSO in pH 7 buffer. FIG. 4A is absorbance spectrum of compound 4. FIG. 4B is Emission spectrum of compound 4. FIG. 4C is Absorbance spectrum of compound 7. FIG. 4D is Emission spectrum of compound 7. FIG. 4E is Absorbance spectrum of compound 8. FIG. 4F is Emission spectrum of compound 8. FIG. 4G is Absorbance spectrum of compound S1. FIG. 4H is Emission spectrum of compound S1.

[2] = Cytotoxicity against HeLa cells (MTS assay); format: cell-based; settings: human, 2000 cells/well, 10 nM to 200 μM, read-out: 1050 (cytotoxicity)
Experimental: FIG. 4J is the cytotoxicity of compound 8 against HeLa cells seeds at a density of 2000 cells/well is a 96-well plate;
FIG. 4I is the ROS with compound 8. The experiment was performed in duplicate. Error bars were determined from the calculated mean and standard deviation (Prism 5.0a, GraphPad Software, Inc.). FIG. 4J is the cytotoxicity of compound 8 against HeLa cells seeds at a density of 2000 cells/well is a 96-well plate. Concentrations of compound 8 ranged from 10 nM to 200 μM. The assay was performed for 3 days, and the relative cell density was determined by an MTS assay (Promega CellTiter 96® AQueous Non-Radioactive Cell Proliferation Assay).

[3] = system: Human bronchial epithelial cells (BEAS-2B); experiment: Live-cell imaging of human bronchial epithelial cells; format: cell-based
Experimental: Human bronchial epithelial cells (BEAS-2B) (American Type Culture Collectin) were grown in LHC-9 medium (Invitrogen) on glass-bottomed Petri dishes (MatTek) precoated with 0.01 mg ml^−1 of human fibronectin (Invitrogen), 0.029 mg ml^−1 Vitrogen 100 (Cohesion) and 0.01 mg ml^−1 bovine serum albumin (Invitrogen) in LHC-9 medium. Immediately prior to imaging, cells were rinsed with Hank's balanced salt solution, which contained calcium and magnesium, and placed inside a temperature-controlled, airtight environmental chamber and maintained at 37° C. and 5% CO2. Images were obtained using a Nikon TE2000E-PFS (Perfect focus system) microscope equipped with a […] oil-immersion objective (Nikon, CFI PlanFluor, NA 1.3) and a fluorescien isothiocyanate longpass filter set (Chroma), a Q-Imaging SRV CCD camera (Q-imaging) and MetaMorph software (Molecular Devices). The motorized XYZ stage used was made by ASA (Eugege). Baseline images were collected before the addition of compound 8 and time-lapsed images obtained at 30 second intervals after the addition of compound 8 (250 nM). Once stage baseline had been achieved, multiple washes were carried out and the media replaced. The cells were then exposed to ozone (˜2.1 ppm) and monitored every 30 seconds for 15 minutes. Ozone was generated from medical grade oxygen (Valley Gas) via a model V1-0 ultraviolet ozonator (OREC) and analyzed with a Dasibi (Glendale) direct-reading instrument. Ozone concentrations were maintained by adjusting both the intensity of the ultraviolet light and the flow rate of oxygen. For each experiment, images were collected from six stages, with a minimum of five cells per position (a minimum of 30 cells per […]).
In another embodiment of the invention, human bronchial epitelial cells were incubated with compound 4 to determine ozone's role in cell biology. […] Based on studies why compound 4 and structurally related compounds are not fluorescent, it is believed that the hydroxymethyl group 4 may have been oxidized to give a more electron-withdrawing group, possible a carboxyl or aldehyde group, and so emit a strong fluorescence signal. To circumvent such an oxidation event, compound 8 was prepared specific for ozone. […] Once a steady baseline signal had been established and maintained for five minutes, ozone gas was generated within the airtight environmental chamber that housed the cell-culture dishes, and fluorescent signals were monitored using live-cell microscopy for approximately 15 minutes.
FIGS. 16A-H are photographs of live-cell imaging of human bronchial epithelial cells in the presence of ozone using compound 8. The left-hand panels (FIGS. A-E) are pseudocolour images that indicate the changes in emission intensity over time, and the right-hand panels show differential interference contrast images of the bronchial epithelial cells. FIG. 16A is before the addition of compound 8 (0 seconds). FIG. 16B illustrates the cell at 107 seconds that is a steady state intensity reached with compound 8 at 250 nM. FIG. 16C illustrates the cell at 326 seconds when ozone flow is started. FIG. 16D illustrates the cell at 536 seconds with the emission intensity increasing. FIG. 16E illustrates the cell at 675 seconds when emission maximum is reached. FIG. 16F illustrates the cell at 820 seconds when the cell starts to die. FIG. 16G illustrates the cell at 969 seconds where the cell emission continues to fall. FIG. 16H illustrates the cell at 1148 seconds when the ozone flow is stopped.

[4] = Ozone detection in indoor air on adsorbent paper strips
Experimental: One embodiment of the present invention can be a badge that contains compound 4 that may be worn by patients so their total ozone exposure can be continuously measured through the day. A proof-of-principle experiment was conducted with compound 4 and compound 1 as a comparative. A solution of compound 4 (500 nmol) in dimethylsulfoxide (DMSO) was absorbed on a piece of adsorbent paper and allowed to dry. The paper strips were stored in an office room that had two photocopiers and two laser printers. After eight hours, the paper strips were removed and placed in a vial that contained oH 7 buffer to elute the dyes. […] The deviation in these values is presumably because of photobleaching and the lack of specificity of compound 1 towards various ROS, including singlet oxygen.
Ozone detection in indoor air. FIG. 10 are photographic illustrations of results of Ozone detection tests in indoor air using the present invention. The top photograph is a Kimwipe® before placing into photocopy room for 8 hours. The bottom photographs are a Kimwipe® in buffer for absorbance and fluorescence measurement, wherein the left photograph is an indigo carmine taken in room light), and the right photograph is compound 4 taken under long-range UV lamp. One adsorbent paper (Kimwipe®) was cut into two 11×9 cm pieces. Solution A (50 μL, 500 nmol of compound 4) was added to one portion of the Kimwipe® and allowed to dry (FIG. 10, top right). Solution B (50 μL, 500 nmol of indigo carmine) was added to the other portion of the Kimwipe® and allowed to dry (FIG. 10, top left). After overnight drying in a laboratory drawer, the paper strips were moved to a poorly ventilated photocopy room (2 photocopiers and 2 laser printers) for 8 hours. The controls remained in the laboratory drawer. After 8 hours, the samples were placed into a scintillation vial, and the dyes were eluted with pH 7 buffer (6.0 mL) (˜5 min) before fluorescence and absorbance measurement. […] FIGS. 3C-D error bars were determined from the calculated mean and standard deviation (Prism 5.0a, GraphPad Software, Inc.).

[5] = Indigo carmine with various ROS; settings: 12.5 μM indigo carmine
Experimental: Indigo carmine with various ROS. The ROS experiments described above were repeated using indigo carmine (Solution B, [Indigo Carmine]final=12.5 μM in all cases) in triplicate. […] FIG. 6A is the Absorbance spectrum of indigo carmine. FIG. 6B is the ROS with indigo carmine. Error bars were determined from the calculated mean and standard deviation (Prism 5.0a, GraphPad Software, Inc.).

With `C=CCCOc1cc2oc3cc(=O)c(Cl)cc-3c(-c3ccccc3C)c2cc1Cl` [compound 8] as the compound, how does the “fluorescence of the probe itself” value [1] read?
Its value is “nearly non-fluorescent”.

And the IC50 at 3 days [2]?
Its IC50 at 3 days is 43 µM.

What about the “fluorescent emissions inside the cells after ozone generation” value ([3]; 250 nM, ozone ~2.1 ppm, about 15 minutes) of the same compound?
The value was “time-dependent increase in fluorescent emissions occurred inside the cells”.

And the “time at which emission maximum is reached” value ([3]; 250 nM, ozone flow started at 326 seconds)?
The value was 675 s.

What about the “fluorescence inside the cells in the absence of external ozone” value ([3]; human bronchial epithelial cells, no external ozone) of the same compound?
Its value is “remained weakly fluorescent within the cells”.

Which “decrease in absorbance at 610 nm” value ([4]; 500 nmol on adsorbent paper, photocopy room, eight hours) does the source give for `O=C1/C(=C2\Nc3ccc(S(=O)(=O)[O-])cc3C2=O)Nc2ccc(S(=O)(=O)[O-])cc21.[Na+].[Na+]` [compound 1, indigo carmine] here?
Its value is 77%.

And the “consumption of compound 1” value ([4]; correlated from decrease in absorbance at 610 nm)?
Its value is 387 nmol.

What about the “decrease in absorbance at 610 nm with nearly all ROS” value [5] of the same compound?
The value was 11-70%.
